{"source": "patent US6737383B1", "about": "“Herbicidal oxadiazolidines” (priority 1999, dated 2004)", "key": {"purple nutsedge": {"tested_on": "purple nutsedge", "assay": "Test B pre/postemergence purple nutsedge", "assay_type": "in vivo, Cyperus rotundus", "method_in_brief": "(§1)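 Test chemicals in a non-phytotoxic solvent mixture with surfactant were sprayed preemergence onto planted seeds and postemergence onto plants 2 to 18 cm tall (1- to 4-leaf stage). After twelve to sixteen days in a greenhouse, injury was visually rated against untreated controls from 0 (no effect) to 10 (complete control).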"}, "crabgrass": {"tested_on": "crabgrass", "assay": "Test B pre/postemergence crabgrass", "assay_type": "in vivo, Digitaria sanguinalis", "method_in_brief": "as §1"}, "corn": {"tested_on": "corn", "assay": "Test B pre/postemergence corn", "assay_type": "in vivo, Zea mays", "method_in_brief": "as §1"}, "pigweed": {"tested_on": "pigweed", "assay": "Test B pre/postemergence pigweed", "assay_type": "in vivo, Amaranthus retroflexus", "method_in_brief": "as §1"}, "surinam grass": {"tested_on": "surinam grass", "assay": "Test B pre/postemergence surinam grass", "assay_type": "in vivo, Brachiaria decumbens", "method_in_brief": "as §1"}, "soybean": {"tested_on": "soybean", "assay": "Test B pre/postemergence soybean", "assay_type": "in vivo, Glycine max", "method_in_brief": "as §1"}, "giant foxtail": {"tested_on": "giant foxtail", "assay": "Test B pre/postemergence giant foxtail", "assay_type": "in vivo, Setaria faberii", "method_in_brief": "as §1"}, "cocklebur": {"tested_on": "cocklebur", "assay": "Test B pre/postemergence cocklebur", "assay_type": "in vivo, Xanthium strumarium", "method_in_brief": "as §1"}, "sugar beet": {"tested_on": "sugar beet", "assay": "Test B pre/postemergence sugar beet", "assay_type": "in vivo, Beta vulgaris", "method_in_brief": "as §1"}, "velvetleaf": {"tested_on": "velvetleaf", "assay": "Test B pre/postemergence velvetleaf", "assay_type": "in vivo, Abutilon theophrasti", "method_in_brief": "as §1"}, "wheat": {"tested_on": "wheat", "assay": "Test B pre/postemergence wheat", "assay_type": "in vivo, Triticum aestivum", "method_in_brief": "as §1"}, "bedstraw": {"tested_on": "bedstraw", "assay": "Test B pre/postemergence bedstraw", "assay_type": "in vivo, Galium aparine", "method_in_brief": "as §1"}, "morningglory": {"tested_on": "morningglory", "assay": "Test B pre/postemergence morningglory", "assay_type": "in vivo, Ipomoea hederacea", "method_in_brief": "as §1"}, "blackgrass": {"tested_on": "blackgrass", "assay": "Test B pre/postemergence blackgrass", "assay_type": "in vivo, Alopecurus myosuroides", "method_in_brief": "as §1"}, "wild oat": {"tested_on": "wild oat", "assay": "Test B pre/postemergence wild oat", "assay_type": "in vivo, Avena fatua", "method_in_brief": "as §1"}, "rape": {"tested_on": "rape", "assay": "Test B pre/postemergence rape", "assay_type": "in vivo, Brassica napus", "method_in_brief": "as §1"}, "[1]": {"details": "Preemergence, Rate 62 g/ha, scale of 0 to 10 where 0 is no effect and 10 is complete control"}, "[2]": {"details": "Preemergence, Rate 250 g/ha, scale of 0 to 10 where 0 is no effect and 10 is complete control"}, "[3]": {"details": "Preemergence, Rate 500 g/ha, scale of 0 to 10 where 0 is no effect and 10 is complete control"}, "[4]": {"details": "Rate 125 g/ha, Preemergence, scale of 0 to 10 where 0 is no effect and 10 is complete control"}, "[5]": {"details": "Rate 500 g/ha, Postemergence, scale 0 to 10, 0 no effect, 10 complete control"}, "[6]": {"details": "Rate 62 g/ha, Postemergence, scale of 0 to 10 where 0 is no effect and 10 is complete control"}, "[7]": {"details": "Rate 125 g/ha, Postemergence, scale 0 to 10"}}, "data": [{"smiles": "COC(=O)C=CCn1c(=O)on(C(=O)N(c2ccc(F)cc2)C(C)C)c1=O", "note": "[Compound 263]", "values": [{"measurement": "Nutsedge plant response rating", "setting": "purple nutsedge; [1]", "result": 0}, {"measurement": "Nutsedge plant response rating", "setting": "purple nutsedge; [2]", "result": 0}, {"measurement": "Plant response rating, Nutsedge", "setting": "purple nutsedge; [3]", "result": 0}, {"measurement": "Nutsedge plant response rating", "setting": "purple nutsedge; [4]", "result": 0}, {"measurement": "Plant response rating (0 to 10; 0 is no effect, 10 is complete control), Nutsedge", "setting": "purple nutsedge; Rate 250 g/ha, Postemergence", "result": 0}, {"measurement": "Nutsedge plant response rating", "setting": "purple nutsedge; [5]", "result": 0}, {"measurement": "Crabgrass plant response rating", "setting": "crabgrass; [1]", "result": 0}, {"measurement": "Crabgrass plant response rating", "setting": "crabgrass; [2]", "result": 0}, {"measurement": "Plant response rating, Crabgrass", "setting": "crabgrass; [3]", "result": 2}, {"measurement": "Crabgrass plant response rating", "setting": "crabgrass; [4]", "result": 0}, {"measurement": "Plant response rating (0 to 10; 0 is no effect, 10 is complete control), Crabgrass", "setting": "crabgrass; Rate 250 g/ha, Postemergence", "result": 0}, {"measurement": "Crabgrass plant response rating", "setting": "crabgrass; [5]", "result": 2}, {"measurement": "Corn plant response rating", "setting": "corn; [1]", "result": 0}, {"measurement": "Corn plant response rating", "setting": "corn; [2]", "result": 0}, {"measurement": "Plant response rating, Corn", "setting": "corn; [3]", "result": 0}, {"measurement": "Corn plant response rating", "setting": "corn; [6]", "result": 0}, {"measurement": "Corn plant response rating", "setting": "corn; [7]", "result": 0}, {"measurement": "Corn plant response rating", "setting": "corn; [4]", "result": 0}, {"measurement": "Plant response rating (0 to 10; 0 is no effect, 10 is complete control), Corn", "setting": "corn; Rate 250 g/ha, Postemergence", "result": 0}, {"measurement": "Corn plant response rating", "setting": "corn; [5]", "result": 0}, {"measurement": "Redroot pigweed plant response rating", "setting": "pigweed; [1]", "result": 0}, {"measurement": "Redroot pigweed plant response rating", "setting": "pigweed; [2]", "result": 0}, {"measurement": "Plant response rating, Redroot pigweed", "setting": "pigweed; [3]", "result": 0}, {"measurement": "Redroot pigweed plant response rating", "setting": "pigweed; [4]", "result": 0}, {"measurement": "Plant response rating (0 to 10; 0 is no effect, 10 is complete control), Redroot pigweed", "setting": "pigweed; Rate 250 g/ha, Postemergence", "result": 0}, {"measurement": "Redroot pigweed plant response rating", "setting": "pigweed; [5]", "result": 0}, {"measurement": "B. signalgrass plant response rating", "setting": "surinam grass; [1]", "result": 0}, {"measurement": "B. signalgrass plant response rating", "setting": "surinam grass; [2]", "result": 0}, {"measurement": "Plant response rating, B. signalgrass", "setting": "surinam grass; [3]", "result": 0}, {"measurement": "B. signalgrass plant response rating", "setting": "surinam grass; [6]", "result": 0}, {"measurement": "B. signalgrass plant response rating", "setting": "surinam grass; Rate 125 g/ha, Postemergence, scale 0 (no effect) to 10 (complete control)", "result": 0}, {"measurement": "B. signalgrass plant response rating", "setting": "surinam grass; [4]", "result": 0}, {"measurement": "Plant response rating (0 to 10; 0 is no effect, 10 is complete control), B. signalgrass", "setting": "surinam grass; Rate 250 g/ha, Postemergence", "result": 0}, {"measurement": "B. signalgrass plant response rating", "setting": "surinam grass; [5]", "result": 0}, {"measurement": "Soybean plant response rating", "setting": "soybean; [1]", "result": 0}, {"measurement": "Soybean plant response rating", "setting": "soybean; [2]", "result": 0}, {"measurement": "Plant response rating, Soybean", "setting": "soybean; [3]", "result": 0}, {"measurement": "Soybean plant response rating", "setting": "soybean; [4]", "result": 0}, {"measurement": "Soybean plant response rating", "setting": "soybean; [5]", "result": 1}, {"measurement": "Giant foxtail plant response rating", "setting": "giant foxtail; [1]", "result": 2}, {"measurement": "Giant foxtail plant response rating", "setting": "giant foxtail; [2]", "result": 9}, {"measurement": "Plant response rating, Giant foxtail", "setting": "giant foxtail; [3]", "result": 9}, {"measurement": "Giant foxtail plant response rating", "setting": "giant foxtail; [4]", "result": 9}, {"measurement": "Plant response rating (0 to 10; 0 is no effect, 10 is complete control), Giant foxtail", "setting": "giant foxtail; Rate 250 g/ha, Postemergence", "result": 0}, {"measurement": "Giant foxtail plant response rating", "setting": "giant foxtail; [5]", "result": 3}, {"measurement": "Cocklebur plant response rating", "setting": "cocklebur; [1]", "result": 0}, {"measurement": "Cocklebur plant response rating", "setting": "cocklebur; [2]", "result": 0}, {"measurement": "Cocklebur plant response rating", "setting": "cocklebur; [6]", "result": 0}, {"measurement": "Cocklebur plant response rating", "setting": "cocklebur; [7]", "result": 0}, {"measurement": "Cocklebur plant response rating", "setting": "cocklebur; [4]", "result": 0}, {"measurement": "Plant response rating (0 to 10; 0 is no effect, 10 is complete control), Cocklebur", "setting": "cocklebur; Rate 250 g/ha, Postemergence", "result": 0}, {"measurement": "Cocklebur plant response rating", "setting": "cocklebur; [5]", "result": 0}, {"measurement": "Sugarbeets plant response rating", "setting": "sugar beet; [1]", "result": 0}, {"measurement": "Sugarbeets plant response rating", "setting": "sugar beet; [2]", "result": 0}, {"measurement": "Plant response rating, Sugarbeets", "setting": "sugar beet; [3]", "result": 0}, {"measurement": "Sugarbeets plant response rating", "setting": "sugar beet; [4]", "result": 0}, {"measurement": "Sugarbeets plant response rating", "setting": "sugar beet; [5]", "result": 0}, {"measurement": "Velvetleaf plant response rating", "setting": "velvetleaf; [1]", "result": 0}, {"measurement": "Velvetleaf plant response rating", "setting": "velvetleaf; [2]", "result": 0}, {"measurement": "Plant response rating, Velvetleaf", "setting": "velvetleaf; [3]", "result": 3}, {"measurement": "Velvetleaf plant response rating", "setting": "velvetleaf; [4]", "result": 0}, {"measurement": "Velvetleaf plant response rating", "setting": "velvetleaf; [5]", "result": 2}, {"measurement": "Wheat plant response rating", "setting": "wheat; [1]", "result": 0}, {"measurement": "Wheat plant response rating", "setting": "wheat; [2]", "result": 0}, {"measurement": "Plant response rating, Wheat", "setting": "wheat; [3]", "result": 0}, {"measurement": "Wheat plant response rating", "setting": "wheat; [4]", "result": 0}, {"measurement": "Wheat plant response rating", "setting": "wheat; [5]", "result": 2}, {"measurement": "Bedstraw plant response rating", "setting": "bedstraw; [1]", "result": 0}, {"measurement": "Bedstraw plant response rating", "setting": "bedstraw; [2]", "result": 0}, {"measurement": "Plant response rating, Bedstraw", "setting": "bedstraw; [3]", "result": 0}, {"measurement": "Bedstraw plant response rating", "setting": "bedstraw; [6]", "result": 0}, {"measurement": "Bedstraw plant response rating", "setting": "bedstraw; [7]", "result": 0}, {"measurement": "Bedstraw plant response rating", "setting": "bedstraw; [4]", "result": 0}, {"measurement": "Morningglory plant response rating", "setting": "morningglory; [1]", "result": 0}, {"measurement": "Morningglory plant response rating", "setting": "morningglory; [2]", "result": 0}, {"measurement": "Plant response rating, Morningglory", "setting": "morningglory; [3]", "result": 0}, {"measurement": "Morningglory plant response rating", "setting": "morningglory; [4]", "result": 0}, {"measurement": "Plant response rating (0 to 10; 0 is no effect, 10 is complete control), Morningglory", "setting": "morningglory; Rate 250 g/ha, Postemergence", "result": 4}, {"measurement": "Morningglory plant response rating", "setting": "morningglory; [5]", "result": 7}, {"measurement": "Blackgrass plant response rating", "setting": "blackgrass; [1]", "result": 0}, {"measurement": "Blackgrass plant response rating", "setting": "blackgrass; [2]", "result": 0}, {"measurement": "Plant response rating, Blackgrass", "setting": "blackgrass; [3]", "result": 0}, {"measurement": "Blackgrass plant response rating", "setting": "blackgrass; [6]", "result": 0}, {"measurement": "Blackgrass plant response rating", "setting": "blackgrass; [7]", "result": 0}, {"measurement": "Blackgrass plant response rating", "setting": "blackgrass; [4]", "result": 0}, {"measurement": "Plant response rating (0 to 10; 0 is no effect, 10 is complete control), Blackgrass", "setting": "blackgrass; Rate 250 g/ha, Postemergence", "result": 3}, {"measurement": "Blackgrass plant response rating", "setting": "blackgrass; [5]", "result": 5}, {"measurement": "Wild oats plant response rating", "setting": "wild oat; [1]", "result": 0}, {"measurement": "Wild oats plant response rating", "setting": "wild oat; [2]", "result": 0}, {"measurement": "Plant response rating, Wild oats", "setting": "wild oat; [3]", "result": 0}, {"measurement": "Wild oats plant response rating", "setting": "wild oat; [4]", "result": 0}, {"measurement": "Wild oats plant response rating", "setting": "wild oat; [5]", "result": 0}, {"measurement": "Rape plant response rating", "setting": "rape; [1]", "result": 0}, {"measurement": "Rape plant response rating", "setting": "rape; [2]", "result": 0}, {"measurement": "Plant response rating, Rape", "setting": "rape; [3]", "result": 0}, {"measurement": "Rape plant response rating", "setting": "rape; [4]", "result": 0}, {"measurement": "Plant response rating (0 to 10; 0 is no effect, 10 is complete control), Rape", "setting": "rape; Rate 250 g/ha, Postemergence", "result": 0}, {"measurement": "Rape plant response rating", "setting": "rape; [5]", "result": 0}]}]}
